Assay results from publication PMC6403019, “Nanoformulated Antiretroviral Therapy Attenuates Brain Metabolic Oxidative Stress” (Molecular Neurobiology, 2018).

What was measured:
[1] = system: mouse embryonic neuron cells; experiment: ROS levels after TBHP challenge in neurons; assay type: cell-based; conditions: 100 μM drug, then 10 μM TBHP; normalized with TBHP-positive control
Protocol: (§1) ROS were measured in neuron and MDM cells with the probe DCFDA (dichlorofluorescin diacetate, abcam, Cambridge, MA). Cells were seeded on black, clear-bottomed 96-well plates. After cells were pre-cultured with different treatments, the media were removed and the cells were washed with 1× buffer (supplied with the kit). Cells were incubated for 45 min in 1× buffer containing 25 μM DCFDA at 37 °C. DCF production was measured by fluorescence spectroscopy with excitation wavelength at 485 nm and emission wavelength at 535 nm. In this study, the cells were treated with increasing concentrations of free DTG, nano-DTG, and various vehicle, positive, and negative controls to compare ROS generation and lactate dehydrogenase (LDH)-based cytotoxicity generated by such treatments. […] TBHP (tert-butyl hydroperoxide; 10 μM) and PBS were used as the positive and negative controls, respectively. The vehicle control for nanoformulated DTG was composed of poloxamer micelles without the drug. […] Specifically, cells (both MDM and neurons) were treated for 2 h with various vehicle or drug concentrations. Then, cells were washed and new media was added, and after 24-h culture, cells were challenged with TBHP for 2 h, followed by fluorescence-based ROS measurements.

[2] = system: mouse embryonic neuron cells; experiment: ROS formation (DCFDA) in neurons; assay type: cell-based; conditions: administered at 100 and 500 μM
Protocol: as §1

human MDM [3] = experiment: ROS levels after TBHP challenge in MDM; assay type: cell-based; conditions: 10 to 100 μM drug, then 10 μM TBHP
Protocol: as §1

[4] = system: mouse embryonic neuron cells; experiment: Cellular uptake of DTG in neurons (LC-MS/MS MRM); assay type: in vitro ADME; conditions: treated with 100 μM
Excerpt: Cycle time was 150 ms for each transition.

[5] = Plasma concentration after intramuscular injection of free DTG; assay type: in vivo, mice; conditions: single free DTG injection, 45 mg/kg
brain metabolome = experiment: Brain region-specific global metabolomics (LC-MS) after DTG injections; assay type: in vivo, mice (Balb/cJ); conditions: five brain regions, Fig. 4
Protocol: Brain tissue subregions were extracted as previously described. Briefly, 0.6 mL of cold methanol:H2O (4:1, v/v) were added per 10 mg tissue (solvent volume was adjusted accordingly to tissue weight). Homogenization was performed with glass beads in a homogenizer and sonicated in an ice bath for 10 min. The mixtures were then transferred to 1.5-mL Eppendorf vials and rinsed with additional 200 μL extraction solvent. To precipitate proteins, the samples were incubated for 1 h at − 20 °C, followed by a 15-min centrifugation at 13,000 rpm at 4 °C. The resulting supernatant was evaporated to dryness in a vacuum concentrator. The dry extracts were then reconstituted in acetonitrile:H2O (1:1, v/v), normalized by tissue weight, sonicated for 10 min, and centrifuged for 15 min at 13000 rpm and 4 °C to remove insoluble debris. The supernatants were transferred to HPLC vials and stored at − 80 °C prior to LC-MS analysis.
The extracts were analyzed on a 6550 iFunnel QTOF mass spectrometer coupled with a 1290 UPLC system (Agilent Technologies, Santa Clara, CA). For global metabolomics, a Luna Aminopropyl, 3 μm, 150 mm × 2.0 mm I.D. HILIC column (Phenomenex, Torrance, CA) was used. […]
LC-MS data were converted to mzXML files using Masshunter Acquisition Software (Agilent Masshunter 6.0B). […] The relative quantification of metabolite features was based on extracted ion chromatogram areas. […]

neuron and MDM cells = experiment: LDH-based cytotoxicity; assay type: cell-based; conditions: 500 μM in the dosing medium
[6] = design: method as in PMID 21716073, PMID 23824675; conditions: HIV-infected adults, ten doses of monotherapy with 50 mg once daily DTG tablets; cited from earlier work
human MDM [7] = experiment: ROS formation (DCFDA) in MDM; assay type: cell-based; conditions: 100 μM
Protocol: as §1

ROS fold change after TBHP challenge, neurons [1]: 4
ROS fold change vs vehicle control, neurons [2]: up to 1.5 times of control
DTG concentration in neurons [4]: 168 ng/10^6 cells
plasma concentration [5]: up to 11.29 μg/mL
ROS fold change vs vehicle control, MDM (human MDM [7]): 0.8 times
Structure (SMILES): C[C@@H]1CCO[C@H]2Cn3cc(C(=O)NCc4ccc(F)cc4F)c(=O)c(O)c3C(=O)N12 [free DTG, dolutegravir]
ROS response to TBHP challenge, MDM (human MDM [3]): induced ROS formation in a dose-response at higher concentrations (60 to 100 μM)
changes of oxidative stress metabolites (ascorbic acid, threonate, GSH, GSSG) vs controls (brain metabolome): statistically significant (p value < 0.05) with the exception of ascorbic acid levels observed in the H
cytotoxicity (LDH-based) (neuron and MDM cells): did not show significant cytotoxicity
steady-state plasma concentration (Cmax) [6]: 3340 ng/mL
